How the values were obtained:
Cyclooxygenase = Cyclooxygenase inhibitory effect; format: biochemical; conditions: seminal vesicular gland microsomes, 14C-arachidonic acid, prostaglandin E2 formation
Experimental: (1) Cyclooxygenase inhibitory effect
The assay was carried out by the method described in Biochem. Pharmacol. 25, 2479-2484 (1976).
^14 C-Arachidonic acid was reacted with seminal vesicular gland microsomes and the test drugs at various concentrations over a predetermined period of time and the obtained prostaglandin E2 was separated by thin-layer chromatography. The radioactivity was determined by liquid scintillation counter. The IC50 values were calculated by the comparison with the radioactivity of the control.

5-Lipoxygenase = target: T1, 5-Lipoxygenase (Cavia porcellus, UniProt A0A286X958); assay: 5-Lipoxygenase inhibitory effect; format: biochemical; conditions: cytosol fraction of guinea pig polymorphonuclear leukocytes, 14C-arachidonic acid, 5-hydroxyeicosatetraenoic acid formation
T1 construct: the polymorphonuclear leukocytes were collected and the cytosol fraction was obtained as an enzyme source; endogenous in cells; host or cells: guinea pig peritoneal polymorphonuclear leukocytes (casein-elicited), cytosol fraction
T1 sequence (A0A286X958 1-674): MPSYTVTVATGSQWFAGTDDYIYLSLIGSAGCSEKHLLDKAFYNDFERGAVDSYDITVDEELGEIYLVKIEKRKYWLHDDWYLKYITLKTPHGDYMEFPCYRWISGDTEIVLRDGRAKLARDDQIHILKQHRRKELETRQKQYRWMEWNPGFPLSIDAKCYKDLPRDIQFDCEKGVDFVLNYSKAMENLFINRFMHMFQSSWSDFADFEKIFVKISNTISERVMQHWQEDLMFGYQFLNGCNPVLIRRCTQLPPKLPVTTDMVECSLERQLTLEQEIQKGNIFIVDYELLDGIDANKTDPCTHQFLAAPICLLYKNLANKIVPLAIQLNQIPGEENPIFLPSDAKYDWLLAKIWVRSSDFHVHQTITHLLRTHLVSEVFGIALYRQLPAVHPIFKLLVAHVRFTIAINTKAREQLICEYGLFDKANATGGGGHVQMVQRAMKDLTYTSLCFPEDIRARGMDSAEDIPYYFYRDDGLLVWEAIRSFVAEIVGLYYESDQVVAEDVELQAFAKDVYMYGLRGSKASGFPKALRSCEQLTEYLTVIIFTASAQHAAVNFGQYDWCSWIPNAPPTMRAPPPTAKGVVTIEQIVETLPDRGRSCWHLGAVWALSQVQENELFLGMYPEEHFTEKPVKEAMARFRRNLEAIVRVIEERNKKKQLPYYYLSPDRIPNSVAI
Experimental: 2) 5-Lipoxygenase inhibitory effect
The assay was carried out by the method described in Journal of Biological Chemistry 258, 5754-5758 (1983) Casein was injected into the abdominal cavity of a guinea pig, and the polymorphonuclear leukocytes were collected and the cytosol fraction was obtained as an enzyme source. ^14 C-Arachidonic acid was reacted with the enzyme and the test drugs at various concentrations over a predetermined period of time. The obtained 5-hydroxyeicosatetraenoic acid was separated by thin-layer chromatography and the radioactivity was determined. By the comparison with the radioactivity of the control, the IC50 values were calculated.

[1] = system: contraction of respiratory tract; assay: Effect on allergic asthma (airway resistance after ovalbumin challenge in passively sensitized guinea pigs); format: in vivo, guinea pig (Hartley); conditions: mean ± standard error, oral, 100 mg in 5 ml, 5 ml/kg, 2 hours before challenge, ovalbumin i.v., diphenhydramine, propranolol and indomethacin pretreatment
Experimental: 3. Effect on allergic asthma
To a guinea pig (Hartley, 350 to 400 g, male) was administered 0.5 ml/kg of a guinea pig anti-ovalbumin IgE serum for passive sensitization. Two days later, the guinea pig was anesthetized with pentobarbital (70 mg/kg) and a cannula and a catheter were each inserted into the trachea and a carotid artery, respectively. Further, the spontaneous respiration of the guinea pig was stopped with use of 0.5 mg/kg of pancuronium bromide and artificial respiration was conducted (100% oxygen at 1 kgf/cm^2, respirator: EVM-50A (manufactured by AIKA Co., Ltd.), predetermined flow rate of oxygen: 0.45 l/min, number of respiration: 40 times/min, time for inspiration: 0.25 sec/respiration). The measurement for contraction of respiratory tract was carried out by modified Konzett and Rossler method. A 100 mg quantity of the compound of the present invention was suspended in 5 ml of a 5% Tween-80-phosphate buffered physiological saline solution (pH 6.8). Two hours before the challenge, the test drug was orally administered in a volume of 5 ml/kg. The same quantity of the solvent alone was orally administered to a control group. Further, 2.5 mg/kg of diphenhydramine, 0.05 mg/kg of propranolol and 5 mg/kg of indomethacin were intravenously administered 5 minutes before the challenge. A 22.5 to 35 μg/kg quantity of ovalbumin was intravenously administered and the contraction of respiratory tract was measured as airway resistance with use of a pressure transducer. The maximum airway resistance was taken as 100%, and the change in the airway resistance caused a predetermined period of time after the challenge was shown as the ratio relative to the maximum airway resistance.

SMILES	IC50 (Cyclooxygenase) [nM]	IC50 (5-Lipoxygenase) [nM]	Airway resistance (ratio relative to the maximum airway resistance) ([1]; 3 minutes after challenge, control 41.9 ± 7.0) [%]	Airway resistance (ratio relative to the maximum airway resistance) ([1]; 8 minutes after challenge, control 79.5 ± 5.4) [%]	Airway resistance (ratio relative to the maximum airway resistance) ([1]; 16 minutes after challenge, control 75.3 ± 5.8) [%]
O=C(Cc1ccc(O)c(O)c1)OC(CN1CCN(CCCCCCCCCCO)CC1)c1ccccc1 (stereo not drawn) [Compound 8]	9900	320	–	–	–
O=C(/C=C/c1ccc(O)c(O)c1)OC(CN1CCN(CCCCCCCCCCO)CC1)c1ccc(Cl)cc1 (stereo not drawn) [Compound 15]	3400	90	–	–	–
CCCCCCCCCCN1CCN(CC(OC(=O)/C=C/c2ccc(O)c(O)c2)c2ccccc2)CC1 (stereo not drawn) [Compound 19]	4300	80	–	–	–
CCCCCCCCCCN1CCN(C(=O)CNC(=O)/C=C/c2ccc(OC(=O)OCC)c(OC(=O)OCC)c2)CC1 [Compound 40]	–	–	22.6 ± 3.7	45.6 ± 11.0	40.9 ± 11.3

The next lines start with results.

IC50 (Cyclooxygenase) [nM]	IC50 (5-Lipoxygenase) [nM]	SMILES	Airway resistance (ratio relative to the maximum airway resistance) ([1]; 3 minutes after challenge, control 41.9 ± 7.0) [%]	Airway resistance (ratio relative to the maximum airway resistance) ([1]; 8 minutes after challenge, control 79.5 ± 5.4) [%]	Airway resistance (ratio relative to the maximum airway resistance) ([1]; 16 minutes after challenge, control 75.3 ± 5.8) [%]
4200	40	CCCCCCCCCCN1CCN(C(=O)CNC(=O)/C=C/c2ccc(O)c(O)c2)CC1 [Compound 23]	–	–	–
8400	40	CCCCCCCCCCN1CCN(C(=O)/C=C/c2ccc(O)c(O)c2)CC1 [Compound 35]	–	–	–
2900	120	CCCCCCCCN1CCN(C(=O)/C=C/c2ccc(O)c(O)c2)CC1 [Compound 36]	–	–	–

Source: patent publication US5182284A, “Piperazine compounds, processes for preparation thereof and medical uses thereof” (Taiho Pharmaceutical Co., Ltd., priority 1990, dated 1993)
